Experimental data reported in patent US8604225B2, “Method of producing hydroxymethyl-furfural” (Novozymes, A/S, priority 2010, dated 2013).
Like-named read-outs stand apart in the source and are kept apart here.

Assays:
[1] = HMF distribution between organic extraction solvent and aqueous phase; format: physicochemical; settings: B(OH)3 and NaCl, organic:aqueous 4:1, 150° C.
Method: An aqueous solution containing 30 wt % fructose (3 mL, 5.7 mmol) was mounted in an Ace vial pressure tube (stable to ˜20 Bar) and solid B(OH)3 (0.3 g, 5 mmol) and NaCl (0.15 g, 3 mmol) were added to the solution. Different organic extraction solvent were added resulting in a organic:aqueous volume ratio of 4:1. The tube with the reaction mixture was placed in a preheated oil bath for a specified time under magnetic stirring (420 rpm) at a 150° C. (reaction times were measured after a stable oil bath temperature had been reached). After the reaction, the tube was removed from the oil bath and cooled to room temperature before a sample was taken for analysis. A sample of the reaction mixture was collected and filtered through a syringe filter (0.45 μm PTFE), mixed with an internal standard (i-PrOH) and analyzed via HPLC.
The R value indicated in table 10 is the HMF distribution obtained between the MIBK phase and the aqueous phase, i.e. [HMF]MIBK/[HMF]aq.

[2] = HMF distribution between MIBK phase and aqueous phase with different salts and boric acid; format: physicochemical; settings: 30 wt % fructose, B(OH)3 0.3 g and salt 3 mmol (anion) in 3 mL, MIBK:aqueous 4:1, 150° C. 45 min
Method: An aqueous solution containing 30 wt % fructose (3 mL, 5.7 mmol) was mounted in an Ace vial pressure tube (stable to ˜20 Bar) and solid B(OH)3 (0.3 g, 5 mmol) and solid salt (3 mmol with respect to the anion) were added to the solution. MIBK was added as extraction solvent so that an organic:aqueous volume ratio of 4:1 was obtained. The tube with the reaction mixture was placed in a preheated oil bath for a specified time under magnetic stirring (420 rpm) at a 150° C. for 45 min (reaction times were measured after a stable oil bath temperature had been reached). After the reaction, the tube was removed from the oil bath and cooled to room temperature before a sample was taken for analysis. A sample of the reaction mixture was collected and filtered through a syringe filter (0.45 μm PTFE), mixed with an internal standard (i-PrOH) and analyzed via HPLC.
The R value indicated in table 9 is the HMF distribution obtained between the MIBK phase and the aqueous phase, i.e. [HMF]MIBK/[HMF]aq

[3] = target: immobilized glucose isomerase (Sweetzyme™) (Streptomyces murinus, UniProt P37031); settings: for glucose isomerase performance at high salt concentration: as shown in example 12; for stability of Sweetzyme™ in the presence of the salt: conclusion of example 12
Sequence of immobilized glucose isomerase (Sweetzyme™) (P37031 whole entry): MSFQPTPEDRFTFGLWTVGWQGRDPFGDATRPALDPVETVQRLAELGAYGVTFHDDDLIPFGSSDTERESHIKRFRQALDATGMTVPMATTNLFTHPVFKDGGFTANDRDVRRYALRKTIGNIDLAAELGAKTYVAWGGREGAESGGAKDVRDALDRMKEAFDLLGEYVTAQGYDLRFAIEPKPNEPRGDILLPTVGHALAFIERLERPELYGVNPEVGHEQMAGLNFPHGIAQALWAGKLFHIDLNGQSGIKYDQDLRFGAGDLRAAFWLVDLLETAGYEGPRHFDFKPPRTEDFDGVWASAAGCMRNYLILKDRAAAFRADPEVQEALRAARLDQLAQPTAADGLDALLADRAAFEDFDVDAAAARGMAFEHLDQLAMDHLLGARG
Method: 3 gram immobilized glucose isomerase (Sweetzyme™) was loaded in a lab-scale column heated to 60° C. and a substrate flow of 50 gram/hour was applied. […] Samples were collected on a regular basis for HPLC analysis and the enzyme activity was calculated according to the following equation (Jorgensen, O. B., et al., Starch-Starke, 1988. 40(8), 307-313):
[formula] where: A: specific activity of immobilized enzyme (micromol/min/g enzyme) (IGIU/g: Immobilized Glucose Isomerase Units/g) 0.926: unit conversion factor Fw: Flow rate of syrup (g/h) w: Weight of enzyme (g) DP1: Inlet % of (glucose+fructose) in dry substance (100 at analytical conditions) DS: Dry substance content (%) X: Conversion=outlet % fructose/DP1 Xi: inlet % fructose/DP1 Xe: X at equilibrium (0.51 at 60° C.) DP1, Xi and Xe were assumed constant with following values: DP1: 99.7 Xi: 0 Xe: 0.5078

[4] = 30 wt % fructose, time not given

CC(=O)CC(C)C [MIBK, methyl-isobutylketone]
R-value [1, 4]: 1.0

O=[N+]([O-])[O-].[Na+] [NaNO3, sodium nitrate]
R value (MIBK:aq) [2]: 0.9

C1CCOC1 [THF, tetrahydrofuran]
R-value [1, 4]: 3.2 | R-value ([1]; 60 min): 3.7 | R-value ([1]; 75 min): 3.6

[Cl-].[Na+] [NaCl, sodium chloride]
R value (MIBK:aq) [2]: 1.0 | Activity ([3]; 50 g/l NaCl, time 19.25 h): 431.74 IGIU/g | Activity ([3]; 50 g/l NaCl, time 47.25 h): 438.80 IGIU/g | Activity ([3]; 50 g/l NaCl, time 67.75 h): 438.50 IGIU/g | Activity ([3]; 50 g/l NaCl, time 139.75 h): 425.49 IGIU/g | Activity ([3]; 50 g/l NaCl, time 164.58 h): 471.33 IGIU/g | Activity ([3]; 50 g/l NaCl, time 188.58 h): 469.46 IGIU/g | Activity ([3]; 50 g/l NaCl, time 212.58 h): 451.52 IGIU/g | Activity ([3]; 50 g/l NaCl, time 234.92 h): 468.84 IGIU/g | Activity ([3]; 50 g/l NaCl, time 310.33 h): 466.38 IGIU/g | Activity ([3]; 50 g/l NaCl, time 332.50 h): 468.14 IGIU/g | Activity ([3]; 50 g/l NaCl, time 379.92 h): 449.12 IGIU/g | Activity ([3]; 50 g/l NaCl, time 475.50 h): 446.72 IGIU/g | Activity ([3]; 50 g/l NaCl, time 499.42 h): 445.83 IGIU/g | Activity ([3]; 50 g/l NaCl, time 523.33 h): 439.69 IGIU/g | Activity ([3]; 50 g/l NaCl, time 548.42 h): 436.34 IGIU/g | Activity ([3]; 50 g/l NaCl, time 570.25 h): 436.11 IGIU/g | Activity ([3]; 50 g/l NaCl, time 643.00 h): 446.01 IGIU/g | Activity ([3]; 50 g/l NaCl, time 670.75 h): 435.86 IGIU/g | glucose isomerase performance at high salt concentration [3]: further stabilised | stability of Sweetzyme™ in the presence of the salt [3]: good stability

O=S(=O)([O-])[O-].[Mg+2] [MgSO4, Magnesium sulfate]
Activity ([3]; Column 6: 102.98 g/l MgSO4, time 17.50 h): 412.41 IGIU/g | Activity ([3]; Column 6: 102.98 g/l MgSO4, time 45.50 h): 420.62 IGIU/g | Activity ([3]; Column 6: 102.98 g/l MgSO4, time 66.00 h): 419.46 IGIU/g | Activity ([3]; Column 6: 102.98 g/l MgSO4, time 138.00 h): 428.95 IGIU/g | Activity ([3]; Column 6: 102.98 g/l MgSO4, time 162.83 h): 436.79 IGIU/g | Activity ([3]; Column 6: 102.98 g/l MgSO4, time 186.83 h): 452.92 IGIU/g | Activity ([3]; Column 6: 102.98 g/l MgSO4, time 210.83 h): 465.04 IGIU/g | Activity ([3]; Column 6: 102.98 g/l MgSO4, time 233.17 h): 424.51 IGIU/g | Activity ([3]; Column 6: 102.98 g/l MgSO4, time 308.58 h): 370.47 IGIU/g | Activity ([3]; Column 6: 102.98 g/l MgSO4, time 330.75 h): 366.35 IGIU/g | Activity ([3]; Column 6: 102.98 g/l MgSO4, time 378.17 h): 324.95 IGIU/g | Activity ([3]; Column 6: 102.98 g/l MgSO4, time 473.75 h): 306.53 IGIU/g | Activity ([3]; Column 6: 102.98 g/l MgSO4, time 497.67 h): 298.41 IGIU/g | Activity ([3]; Column 6: 102.98 g/l MgSO4, time 521.58 h): 299.60 IGIU/g | Activity ([3]; Column 6: 102.98 g/l MgSO4, time 568.50 h): 310.87 IGIU/g

O=S(=O)([O-])[O-].[K+].[K+] [K2SO4, potassium sulphate]
R value (MIBK:aq) [2]: 1.5

O=S(=O)([O-])[O-].[Na+].[Na+] [Na2SO4, sodium sulphate]
R value (MIBK:aq) [2]: 1.7 | Activity ([3]; Column 5: 61.08 g/l Na2SO4, time 17.83 h): 418.97 IGIU/g | Activity ([3]; Column 5: 61.08 g/l Na2SO4, time 45.83 h): 433.23 IGIU/g | Activity ([3]; Column 5: 61.08 g/l Na2SO4, time 66.33 h): 432.90 IGIU/g | Activity ([3]; Column 5: 61.08 g/l Na2SO4, time 138.33 h): 427.76 IGIU/g | Activity ([3]; Column 5: 61.08 g/l Na2SO4, time 163.17 h): 439.97 IGIU/g | Activity ([3]; Column 5: 61.08 g/l Na2SO4, time 187.17 h): 449.17 IGIU/g | Activity ([3]; Column 5: 61.08 g/l Na2SO4, time 211.17 h): 437.81 IGIU/g | Activity ([3]; Column 5: 61.08 g/l Na2SO4, time 233.50 h): 449.65 IGIU/g | Activity ([3]; Column 5: 61.08 g/l Na2SO4, time 308.92 h): 437.45 IGIU/g | Activity ([3]; Column 5: 61.08 g/l Na2SO4, time 331.08 h): 437.38 IGIU/g | Activity ([3]; Column 5: 61.08 g/l Na2SO4, time 378.50 h): 429.47 IGIU/g | Activity ([3]; Column 5: 61.08 g/l Na2SO4, time 474.08 h): 381.79 IGIU/g | Activity ([3]; Column 5: 61.08 g/l Na2SO4, time 498.00 h): 387.83 IGIU/g | Activity ([3]; Column 5: 61.08 g/l Na2SO4, time 521.92 h): 382.13 IGIU/g | Activity ([3]; Column 5: 61.08 g/l Na2SO4, time 547.00 h): 394.91 IGIU/g | Activity ([3]; Column 5: 61.08 g/l Na2SO4, time 568.83 h): 393.80 IGIU/g | Activity ([3]; Column 5: 61.08 g/l Na2SO4, time 641.58 h): 376.25 IGIU/g | Activity ([3]; Column 5: 61.08 g/l Na2SO4, time 669.33 h): 370.35 IGIU/g | glucose isomerase performance at high salt concentration [3]: comparable with a normal glucose substrate | stability of Sweetzyme™ in the presence of the salt [3]: good stability

[Br-].[Na+] [NaBr, sodium bromide]
R value (MIBK:aq) [2]: 0.9

[Cl][Al]([Cl])[Cl] [AlCl3, aluminum chloride]
R value (MIBK:aq) [2]: 1.1

O=[N+]([O-])[O-].[K+] [KNO3, potassium nitrate]
R value (MIBK:aq) [2]: 0.8

[Cl][Fe]([Cl])[Cl] [FeCl3]
R value (MIBK:aq) [2]: 1.1

CCC(C)O (stereo not shown) [2-BuOH, 2-butanol]
R-value [1, 4]: 2.3

[Cl-].[K+] [KCl, potassium chloride]
R value (MIBK:aq) [2]: 1.0 | Activity ([3]; Column 4: 63.78 g/l KCl, time 18.17 h): 398.12 IGIU/g | Activity ([3]; Column 4: 63.78 g/l KCl, time 46.17 h): 410.62 IGIU/g | Activity ([3]; Column 4: 63.78 g/l KCl, time 66.67 h): 411.97 IGIU/g | Activity ([3]; Column 4: 63.78 g/l KCl, time 138.67 h): 415.42 IGIU/g | Activity ([3]; Column 4: 63.78 g/l KCl, time 163.50 h): 429.63 IGIU/g | Activity ([3]; Column 4: 63.78 g/l KCl, time 211.50 h): 448.90 IGIU/g | Activity ([3]; Column 4: 63.78 g/l KCl, time 233.83 h): 469.08 IGIU/g | Activity ([3]; Column 4: 63.78 g/l KCl, time 309.25 h): 468.47 IGIU/g | Activity ([3]; Column 4: 63.78 g/l KCl, time 331.42 h): 469.21 IGIU/g | Activity ([3]; Column 4: 63.78 g/l KCl, time 378.83 h): 443.80 IGIU/g | Activity ([3]; Column 4: 63.78 g/l KCl, time 474.42 h): 430.17 IGIU/g | Activity ([3]; Column 4: 63.78 g/l KCl, time 498.33 h): 428.76 IGIU/g | Activity ([3]; Column 4: 63.78 g/l KCl, time 522.25 h): 418.17 IGIU/g | Activity ([3]; Column 4: 63.78 g/l KCl, time 547.33 h): 437.40 IGIU/g | Activity ([3]; Column 4: 63.78 g/l KCl, time 569.17 h): 438.97 IGIU/g | Activity ([3]; Column 4: 63.78 g/l KCl, time 641.92 h): 455.49 IGIU/g | Activity ([3]; Column 4: 63.78 g/l KCl, time 669.67 h): 426.01 IGIU/g | glucose isomerase performance at high salt concentration [3]: comparable with a normal glucose substrate | stability of Sweetzyme™ in the presence of the salt [3]: good stability

O=[N+]([O-])[O-].[Li+] [LiNO3, lithium nitrate]
R value (MIBK:aq) [2]: 0.9

[Cl-].[Cl-].[Mg+2] [MgCl]
R value (MIBK:aq) [2]: 1.1

[Cl-].[Li+] [LiCl, lithium chloride]
R value (MIBK:aq) [2]: 1.1

[Br-].[Li+] [LiBr, lithium bromide]
R value (MIBK:aq) [2]: 1.0

[I-].[K+] [KI, potassium iodine]
R value (MIBK:aq) [2]: 0.7

[Br-].[K+] [KBr, potassium bromide]
R value (MIBK:aq) [2]: 0.9
